Active and inactive are the calls of the source. The rule behind the calls is not given here.
Key:
SH-SY5Y [1] = assay: Effect on cell death pathway in human SH-SY5Y cells assessed as decrease in necrotic cells at 10 uM incubated for 24 hrs by Annexin V-FITC/PI staining based microscopy; format: functional
SH-SY5Y [2] = assay: Antioxidant activity against human SH-SY5Y cells assessed as effect on intracellular ATP level at 50 uM incubated for 24 hrs followed by addition of oligomycin/FCCP/antimycin A /rotenone by Cell Mito stress assay based seahorse XF96 flux analyzer; format: functional
SH-SY5Y [3] = assay: Effect on cell death pathway in human SH-SY5Y cells assessed as decrease in early apoptotic cells at 50 uM incubated for 24 hrs by Annexin V-FITC/PI staining based microscopy; format: functional
[4] = Drug uptake in C57BL/6J mouse liver mitochondria at 5 uM in presence of succinate by UPLC analysis; format: ADME
SH-SY5Y [5] = assay: Neuroprotective activity against tBHP-induced human SH-SY5Y cells assessed as increase in cell viability at 10 uM preincubated for 30 mins followed by t-BHP addition and measured after 24 hrs by SRB assay; format: functional, cell-based; conditions: time 24.5 hrs
SH-SY5Y [6] = assay: Induction of mitochondrial membrane polarization in human SH-SY5Y cells at 50 uM incubated for 24 hrs by JC-1 staining based fluorescence assay; format: functional
SH-SY5Y [7] = assay: Neuroprotective activity against tBHP-induced human SH-SY5Y cells assessed as increase in cell viability at 10 uM preincubated for 30 mins followed by t-BHP addition at 15 uM and measured after 24 hrs by neutral dye uptake assay relative to control; format: functional; conditions: time 24.5 hrs
SH-SY5Y [8] = assay: Neuroprotective activity against H2O2-induced human SH-SY5Y cells assessed as increase in cell viability at 10 uM preincubated for 30 mins followed by H2O2 addition and measured after 24 hrs by SRB assay; format: functional, cell-based; conditions: time 24.5 hrs
SH-SY5Y [9] = assay: Effect on cell mitochondrial mass in human SH-SY5Y cells assessed as reduction on mitochondrial mass at 50 uM incubated for 24 hrs by mito-tracker green dye based flow cytometry; format: functional; parameters: scale not given: the % may be the effect or the level left
SH-SY5Y [10] = assay: Antioxidant activity against human SH-SY5Y cells assessed as increase in basal respiration at 10 uM incubated for 24 hrs followed by addition of oligomycin/FCCP/antimycin A /rotenone by Cell Mito stress assay based seahorse XF96 flux analyzer; format: functional
[11] = Cytotoxicity against human SH-SY5Y cells assessed as cell viability incubated for 24 hrs; format: toxicity, cell-based; conditions: read-out: Activity
SH-SY5Y [12] = assay: Neuroprotective activity against tBHP-induced human SH-SY5Y cells assessed as increase in cell viability at 50 uM preincubated for 30 mins followed by t-BHP addition and measured after 24 hrs by SRB assay; format: functional, cell-based; conditions: time 24.5 hrs
SH-SY5Y [13] = assay: Antioxidant activity against human SH-SY5Y cells assessed as increase in ATP production-linked respiration at 10 uM incubated for 24 hrs followed by addition of oligomycin/FCCP/antimycin A /rotenone by Cell Mito stress assay based seahorse XF96 flux analyzer; format: functional
SH-SY5Y [14] = assay: Antioxidant activity against human SH-SY5Y cells assessed as increase in maximal respiration at 10 uM incubated for 24 hrs followed by addition of oligomycin/FCCP/antimycin A /rotenone by Cell Mito stress assay based seahorse XF96 flux analyzer; format: functional
SH-SY5Y [15] = assay: Antioxidant activity against human SH-SY5Y cells assessed as increase in basal OCR at 10 uM incubated for 24 hrs followed by addition of oligomycin/FCCP/antimycin A /rotenone by Cell Mito stress assay based seahorse XF96 flux analyzer; format: functional
SH-SY5Y [16] = assay: Neuroprotective activity against tBHP-induced human SH-SY5Y cells assessed as increase in cell viability at 50 uM preincubated for 30 mins followed by t-BHP addition at 30 uM and measured after 24 hrs by neutral dye uptake assay relative to control; format: functional; conditions: time 24.5 hrs
HepG2 = assay: Cytotoxicity against human HepG2 cells assessed as increase in cell viability at 10 to 100 uM incubated for 24 hrs; format: toxicity, cell-based; conditions: hepg2, 24 h, dose 10-100 µM
[17] = Dissociation constant, pKa of the compound by UV-vis spectrophotometric analysis; format: physicochemical
SH-SY5Y [18] = assay: Cytotoxicity against human SH-SY5Y cells incubated for 48 hrs; format: toxicity, cell-based
SH-SY5Y [19] = assay: Cytotoxicity against human SH-SY5Y cells assessed as increase in cell viability at 10 to 100 uM incubated for 24 hrs; format: toxicity, cell-based; conditions: dose 10-100 µM
SH-SY5Y [20] = assay: Neuroprotective activity against H2O2-induced human SH-SY5Y cells assessed as increase in cell viability at 50 uM preincubated for 30 mins followed by H2O2 addition and measured after 24 hrs by SRB assay; format: functional, cell-based; conditions: time 24.5 hrs
[21] = Drug uptake in C57BL/6J mouse liver mitochondria at 5 uM in presence of FCCP by UPLC analysis; format: ADME
SH-SY5Y [22] = assay: Antioxidant activity against human SH-SY5Y cells assessed as increase in basal ECAR at 10 uM incubated for 24 hrs followed by addition of oligomycin/FCCP/antimycin A /rotenone by Cell Mito stress assay based seahorse XF96 flux analyzer; format: functional
SH-SY5Y [23] = assay: Effect on cell death pathway in human SH-SY5Y cells assessed as decrease in late apoptotic cells at 10 uM incubated for 24 hrs by Annexin V-FITC/PI staining based microscopy; format: functional
SH-SY5Y [24] = assay: Effect on cell death pathway in human SH-SY5Y cells assessed as decrease in necrotic cells at 50 uM incubated for 24 hrs by Annexin V-FITC/PI staining based microscopy; format: functional
SH-SY5Y [25] = assay: Neuroprotective activity against tBHP-induced human SH-SY5Y cells assessed as increase in cell viability at 50 uM preincubated for 30 mins followed by t-BHP addition at 15 uM and measured after 24 hrs by neutral dye uptake assay relative to control; format: functional; conditions: time 24.5 hrs
SH-SY5Y [26] = assay: Induction of mitochondrial membrane polarization in human SH-SY5Y cells at 10 uM incubated for 24 hrs by JC-1 staining based fluorescence assay; format: functional
SH-SY5Y [27] = assay: Antioxidant activity against human SH-SY5Y cells assessed as increase in spare respiratory capacity at 10 uM incubated for 24 hrs followed by addition of oligomycin/FCCP/antimycin A /rotenone by Cell Mito stress assay based seahorse XF96 flux analyzer; format: functional
SH-SY5Y [28] = assay: Effect on cell death pathway in human SH-SY5Y cells assessed as decrease in early apoptotic cells at 10 uM incubated for 24 hrs by Annexin V-FITC/PI staining based microscopy; format: functional
[29] = Cytotoxicity against human HepG2 cells assessed as cell viability incubated for 24 hrs; format: toxicity, cell-based; conditions: read-out: Activity
SH-SY5Y [30] = assay: Effect on cell death pathway in human SH-SY5Y cells assessed as decrease in late apoptotic cells at 50 uM incubated for 24 hrs by Annexin V-FITC/PI staining based microscopy; format: functional
[31] = Drug uptake in C57BL/6J mouse liver mitochondria at 5 uM in presence of rotenone by UPLC analysis; format: ADME

CS(=O)(=O)[O-].O=C(/C=C/c1ccc(O)c(O)c1)NCCCCCCCCCC[n+]1ccc2ccccc2c1
Activity (SH-SY5Y [1]): Active
Activity (SH-SY5Y [2]): 87.9%
Activity (SH-SY5Y [3]): Active
Drug uptake [4]: ~ 25%
Activity (SH-SY5Y [5]): Active
Activity (SH-SY5Y [6]): 81.5%
Activity (SH-SY5Y [7]): 85.6%
Activity (SH-SY5Y [8]): inactive
Activity (SH-SY5Y [9]): 86.8%
Activity (SH-SY5Y [10]): Active
viability at 24 h [11]: ≥ 85%
Activity (SH-SY5Y [12]): Active
Activity (SH-SY5Y [13]): Active
Activity (SH-SY5Y [14]): Active
Activity (SH-SY5Y [15]): Active
Activity (SH-SY5Y [16]): 59.6%
Activity (HepG2): Non-Toxic
pKa [17]: 8.45
Activity (SH-SY5Y [18]): Non-Toxic
Activity (SH-SY5Y [19]): Non-Toxic
Activity (SH-SY5Y [20]): inactive
Drug uptake [21]: Active
Activity (SH-SY5Y [22]): Active
Activity (SH-SY5Y [23]): Active
Activity (SH-SY5Y [24]): Active
Activity (SH-SY5Y [25]): 89.7%
Activity (SH-SY5Y [26]): inactive
Activity (SH-SY5Y [27]): Active
Activity (SH-SY5Y [28]): Active
viability at 24 h [29]: ≥ 85%
Activity (SH-SY5Y [30]): Active
Drug uptake [31]: Not Active

Reference: ChEMBL document CHEMBL5316331, “Modulating Cytotoxicity with Lego-like Chemistry: Upgrading Mitochondriotropic Antioxidants with Prototypical Cationic Carrier Bricks” (J Med Chem, 2023)
